Conditions: for mass density: Vibrating tube method

FC(F)=C(F)C(F)(F)F [hexafluoropropene]
Conditions	mass density [kg/m3]	vapor or sublimation pressure [kPa]
348.16 K, 3450.8 kPa, Liquid	1027.09	–
348.16 K, 3473.5 kPa, Liquid	1028.21	–
348.16 K, 3495.4 kPa, Liquid	1029.31	–
348.16 K, 3556 kPa, Liquid	1032.19	–
348.16 K, 3620.1 kPa, Liquid	1035.16	–
348.16 K, 3683.5 kPa, Liquid	1037.98	–
348.16 K, 3748.1 kPa, Liquid	1040.81	–
348.16 K, 3811.8 kPa, Liquid	1043.57	–
348.16 K, 3875.5 kPa, Liquid	1046.1	–
348.16 K, 4030.8 kPa, Liquid	1052.17	–
348.16 K, 4092 kPa, Liquid	1054.62	–
348.16 K, 4154 kPa, Liquid	1057.08	–
348.16 K, 4217.2 kPa, Liquid	1059.37	–
348.16 K, 4278.7 kPa, Liquid	1061.59	–
348.16 K, 4339.9 kPa, Liquid	1063.83	–
348.16 K, 4402.1 kPa, Liquid	1065.77	–
348.16 K, 4464.2 kPa, Liquid	1067.89	–
348.16 K, 4526 kPa, Liquid	1070.05	–
348.16 K, 4587.8 kPa, Liquid	1072.01	–
348.16 K, 4650.2 kPa, Liquid	1074.03	–
348.16 K, 4713.9 kPa, Liquid	1075.88	–
348.16 K, 4776 kPa, Liquid	1077.88	–
348.16 K, 4837.4 kPa, Liquid	1079.66	–
348.16 K, 4898.5 kPa, Liquid	1081.71	–
348.16 K, 4959.8 kPa, Liquid	1083.32	–
348.16 K, 5022.6 kPa, Liquid	1085.31	–
348.16 K, 5083.3 kPa, Liquid	1086.88	–
348.16 K, 5144.8 kPa, Liquid	1088.55	–
348.16 K, 5206 kPa, Liquid	1090.21	–
348.16 K, 5267.2 kPa, Liquid	1091.82	–
348.16 K, 5329.1 kPa, Liquid	1093.58	–
348.16 K, 5389.3 kPa, Liquid	1095.16	–
348.16 K, 5451.8 kPa, Liquid	1096.85	–
348.16 K, 5513.3 kPa, Liquid	1098.5	–
348.16 K, 5576.7 kPa, Liquid	1100.15	–
348.16 K, 5638.9 kPa, Liquid	1101.65	–
348.16 K, 5701.8 kPa, Liquid	1103.22	–
348.16 K, 5762.2 kPa, Liquid	1104.69	–
348.16 K, 5825.1 kPa, Liquid	1106.21	–
348.16 K, 5886.9 kPa, Liquid	1107.77	–
348.16 K, 5948.2 kPa, Liquid	1109.1	–
348.16 K, 6012.5 kPa, Liquid	1110.68	–
348.16 K, 6074.1 kPa, Liquid	1112.14	–
348.16 K, 6135.8 kPa, Liquid	1113.56	–
348.16 K, 6199.8 kPa, Liquid	1114.99	–
348.16 K, 6262.2 kPa, Liquid	1116.4	–
348.16 K, 6326.8 kPa, Liquid	1117.78	–
348.16 K, 6392.4 kPa, Liquid	1119.12	–
348.16 K, 6456 kPa, Liquid	1120.57	–
348.16 K, 6517.7 kPa, Liquid	1121.84	–
348.16 K, 6581 kPa, Liquid	1123.2	–
348.16 K, 6643.4 kPa, Liquid	1124.53	–
348.16 K, 6706.3 kPa, Liquid	1125.82	–
348.16 K, 6767.7 kPa, Liquid	1127.07	–
348.16 K, 6830.9 kPa, Liquid	1128.32	–
348.16 K, 6893 kPa, Liquid	1129.63	–
348.16 K, 6955.9 kPa, Liquid	1130.87	–
348.16 K, 7017.5 kPa, Liquid	1132.05	–
348.16 K, 7142.8 kPa, Liquid	1134.61	–
348.16 K, 7205.4 kPa, Liquid	1135.79	–
348.16 K, 7269.5 kPa, Liquid	1136.95	–
348.16 K, 7332.4 kPa, Liquid	1138.09	–
348.16 K, 7396.2 kPa, Liquid	1139.31	–
348.16 K, 7458.5 kPa, Liquid	1140.53	–
348.16 K, 7521.9 kPa, Liquid	1141.64	–
348.16 K, 7584.8 kPa, Liquid	1142.73	–
348.16 K, 7646.8 kPa, Liquid	1143.93	–
348.16 K, 7707.9 kPa, Liquid	1145.12	–
348.16 K, 7771.4 kPa, Liquid	1146.25	–
348.16 K, 7835.4 kPa, Liquid	1147.35	–
348.16 K, 7897.7 kPa, Liquid	1148.36	–
348.16 K, 7961.9 kPa, Liquid	1149.49	–
348.16 K, 8025.7 kPa, Liquid	1150.51	–
348.16 K, 8087.3 kPa, Liquid	1151.69	–
348.16 K, 8149.7 kPa, Liquid	1152.67	–
348.16 K, 8214.5 kPa, Liquid	1153.77	–
348.16 K, 8278.5 kPa, Liquid	1154.85	–
348.16 K, 8341.3 kPa, Liquid	1155.78	–
348.16 K, 8406.3 kPa, Liquid	1157	–
348.16 K, 8469.9 kPa, Liquid	1157.97	–
348.16 K, 8531.4 kPa, Liquid	1158.94	–
348.16 K, 8594.4 kPa, Liquid	1159.97	–
348.16 K, 8659.7 kPa, Liquid	1160.84	–
348.16 K, 8722.7 kPa, Liquid	1161.97	–
348.16 K, 8786.5 kPa, Liquid	1163	–
348.16 K, 8848.4 kPa, Liquid	1163.83	–
348.16 K, 8911.7 kPa, Liquid	1164.85	–
348.16 K, 8974.2 kPa, Liquid	1165.76	–
348.16 K, 9039.8 kPa, Liquid	1166.77	–
348.16 K, 9105.6 kPa, Liquid	1167.83	–
348.16 K, 9170.3 kPa, Liquid	1168.8	–
348.16 K, 9233.7 kPa, Liquid	1169.7	–
348.16 K, 9295.2 kPa, Liquid	1170.74	–
348.16 K, 9362.9 kPa, Liquid	1171.78	–
348.16 K, 9399.4 kPa, Liquid	1172.31	–
348.16 K, 9466.9 kPa, Liquid	1173.32	–
348.16 K, 9534.3 kPa, Liquid	1174.34	–
348.16 K, 9571.4 kPa, Liquid	1174.89	–
348.16 K, 9609.6 kPa, Liquid	1175.39	–
348.16 K, 9656.8 kPa, Liquid	1176.01	–
348.16 K, 9696 kPa, Liquid	1176.45	–
348.16 K, 9739.9 kPa, Liquid	1177.06	–
348.16 K, 9788.9 kPa, Liquid	1175.42	–
348.16 K, 9833.1 kPa, Liquid	1175.9	–
348.16 K, 9877.8 kPa, Liquid	1176.32	–
348.16 K, 9944.3 kPa, Liquid	1179.73	–
348.16 K, 10016 kPa, Liquid	1180.6	–
348.22 K, Liquid, Closed cell (Static) method	–	2500.5
353.12 K, 6.6 kPa, Fluid (supercritical or subcritical phases)	0.343	–
353.12 K, 8.7 kPa, Fluid (supercritical or subcritical phases)	0.497	–
353.12 K, 11.7 kPa, Fluid (supercritical or subcritical phases)	0.619	–
353.12 K, 14.3 kPa, Fluid (supercritical or subcritical phases)	0.737	–
353.12 K, 16.6 kPa, Fluid (supercritical or subcritical phases)	0.793	–
353.12 K, 24.1 kPa, Fluid (supercritical or subcritical phases)	1.232	–
353.12 K, 26.7 kPa, Fluid (supercritical or subcritical phases)	1.395	–
353.12 K, 28.8 kPa, Fluid (supercritical or subcritical phases)	1.442	–
353.12 K, 32.7 kPa, Fluid (supercritical or subcritical phases)	1.694	–
353.12 K, 35.6 kPa, Fluid (supercritical or subcritical phases)	1.827	–
353.12 K, 38.2 kPa, Fluid (supercritical or subcritical phases)	1.904	–
353.12 K, 101.9 kPa, Fluid (supercritical or subcritical phases)	5.291	–
353.12 K, 111.4 kPa, Fluid (supercritical or subcritical phases)	5.735	–
353.12 K, 120.9 kPa, Fluid (supercritical or subcritical phases)	6.245	–
353.12 K, 129.7 kPa, Fluid (supercritical or subcritical phases)	6.695	–
353.12 K, 140.7 kPa, Fluid (supercritical or subcritical phases)	7.318	–
353.12 K, 151.2 kPa, Fluid (supercritical or subcritical phases)	7.845	–
353.12 K, 160.5 kPa, Fluid (supercritical or subcritical phases)	8.339	–
353.12 K, 169.9 kPa, Fluid (supercritical or subcritical phases)	8.914	–
353.12 K, 180.3 kPa, Fluid (supercritical or subcritical phases)	9.389	–
353.12 K, 189.6 kPa, Fluid (supercritical or subcritical phases)	9.904	–
353.12 K, 199 kPa, Fluid (supercritical or subcritical phases)	10.374	–
353.12 K, 209.3 kPa, Fluid (supercritical or subcritical phases)	11.01	–
353.12 K, 220.4 kPa, Fluid (supercritical or subcritical phases)	11.538	–
353.12 K, 230.8 kPa, Fluid (supercritical or subcritical phases)	12.133	–
353.12 K, 242.1 kPa, Fluid (supercritical or subcritical phases)	12.723	–

— the NIST ThermoML archive (doi:10.1021/je900596d)
